Literature values as cited in patent US20250009787A1, “Nitric Oxide Containing Foam Formulation for Topical Medical Use” (NOxy Health Products, Inc., priority 2023, published 2025).

Columns and labels:
leg abscesses = settings: 200 ppm NO gas, average of 8.1 hours, 14 consecutive nights
[1] = reported to be toxic at higher concentration

For Nitric oxide [NO gas], the lesion size (leg abscesses) is given as “significantly reduced in size” and the “toxic concentration (exposure)” value [1] is given as over 200 ppm.
